System: LNCaP tumour-bearing NSG mice
Test: PET/CT in vivo biodistribution and tumour uptake in subcutaneous LNCaP prostate cancer xenograft model
Conditions: n = 4; for Bone (SUV mean) / Brain (SUV mean) / Colon (SUV mean) / Gall bladder (SUV mean) / Heart (SUV mean) / Kidney (SUV mean) / Liver (SUV mean) / Lung (SUV mean) / Muscle (SUV mean) / Salivary gland (SUV mean) / Small instestine (SUV mean): LNCaP NSG male mice, i.v., PET/CT; for ratio between tumour and muscle (tumour SUV max/muscle SUV mean) / uptake in the tumour expressed as SUV max: LNCaP tumour, NSG mice
Method: The uptake of [^18F]F-PSMA-1007 and [^18F]F-PSMA-617-NODA ([^18F]1) was compared in vivo in a xenograft model of human prostate cancer obtained using LNCaP cells which are PSMA positive, as confirmed by real time PCR-analysis (Additional file 1: S69A). LNCaP tumour-bearing NSG mice were injected i.v. with either [^18F]F-PSMA-1007 or [^18F]F-PSMA-617-NODA (~ 3.8 MBq/mouse, ~ 20 pmol for [^18F]F-PSMA-1007 and ~ 50 pmol [^18F]1). Radiotracer uptake was assessed after 10, 60 and 120 min post injection by whole-body PET/CT acquisitions.
Total body biodistribution of [^18F]F-PSMA-1007, [^18F]F-PSMA-617-NODA and [^18F]F-PSMA-617-RESCA was evaluated in vivo using imaging PET/CT. [^18F]F-PSMA-617-NODA uptake was compared to that of the [^18F]F-PSMA-1007 in a PSMA positive prostate tumour xenograft model (LNCaP). [^18F]F-PSMA-617-NODA and [^18F]F-PSMA-617-RESCA uptake were also evaluated using an orthotopic glioma model (Gli36ΔEGFR).
Animal experiments were carried out in compliance with institutional guidelines for the care and the use of experimental animals, which have been authorized by the Italian Ministry of Health (n° 378/2019-PR and 817/2021-PR). The animals were housed at constant temperature (23 °C) and relative humidity (40%) under a regular light/dark cycle with food and water available ad libitum. Seven to eight weeks old male NSG mice (Charles River Laboratories Italia s.r.l., Italy) were subcutaneously inoculated in the right flank with 5 × 10^6 of PSMA‐positive human prostate cancer cells (LNCaP) suspended in matrigel (1: 1, total volume 200 ul). The growth tumour was monitored periodically with calliper and tumour volume was calculated using the following formula: […]
When the tumour volume was about 230.8 ± 60.3 mm^3 (approximately 15 days after tumour cells inoculation), 4 animals performed an in vivo biodistribution of [^18F]F-PSMA-1007 and [^18F]F-PSMA-617-NODA, on successive but non-consecutive days, using PET/CT.
Mice were injected into a tail vein with 3.8 ± 0.1 MBq of [^18F]F-PSMA-1007, 4.0 ± 0.2 MBq of [^18F]F-PSMA-617-NODA ([^18F]1) and 3.8 ± 0.1 MBq of [^18F]F-PSMA-617-RESCA ([^18F]2), respectively.
Total body PET/CT acquisitions were performed using PET/CT tomographs dedicated to small animals, X-ß-CUBE (Molecubes, Gent, Belgium) after 10, 60 and 120 min from tracer injection. Each acquisition lasted 30 min and mice were maintained anesthetized (4% isoflurane in induction and 2% in maintenance in air) during acquisition.
Image quantification analysis was performed with PMOD 4.105 software (Zurich, Switzerland). Volumes of interest (VOIs) were drawn on peripheral organs (tumour, thoracic muscle, heart, liver, kidney, salivary glands, lung, small intestine, colon, bone, gall bladder) and on the healthy brain using CT images. For the glioma model, PET/CT images were co-registered to MRI images and two different VOIs were defined: (1) a control VOI covering the healthy left striatum (volume 4 mm^3) was drawn on the axial MR images, adjusted on the other imaging planes and then copied on the PET images of each mouse; (2) a second glioma-covering VOI was drawn in the tumour-affected brain hemisphere and centered on mice lesions.
For quantification, Standardized Uptake Value (SUV) was calculated according to the formula:
SUV = organ concentration activity [MBq/g]/(injected activity [MBq]/animal weight [g]).
The data were expressed as standardized-uptake-values (SUVmean and SUVmax) and as tumour-to-muscle (T/M) and tumour-to-blood (T/B) ratio in PCa model and as tumour-to-contralateral (T/Cl) ratio in glioma model.

In the case of `O=C(O)CC[C@H](NC(=O)N[C@@H](CCCCNC(=O)[C@H](Cc1ccc2ccccc2c1)NC(=O)c1ccc(CNC(=O)[C@H](CCC(=O)O)NC(=O)[C@H](CCC(=O)O)NC(=O)c2ccc([18F])nc2)cc1)C(=O)O)C(=O)O` [[^18F]F-PSMA-1007, reference compound], the “Bone (SUV mean)” value (10 min p.i.) is reported as 0.36 ± 0.09, the “Brain (SUV mean)” value (10 min p.i.) is reported as 0.12 ± 0.02 and the “Colon (SUV mean)” value (10 min p.i.) is reported as 0.35 ± 0.27. The “Gall bladder (SUV mean)” value (10 min p.i.) was 0.99 ± 0.40, the “Heart (SUV mean)” value (10 min p.i.) was 0.38 ± 0.09 and the “Kidney (SUV mean)” value (10 min p.i.) was 9.55 ± 2.63. The “Liver (SUV mean)” value (10 min p.i.) was 0.50 ± 0.04, the “Lung (SUV mean)” value (10 min p.i.) was 0.46 ± 0.09 and the “Muscle (SUV mean)” value (10 min p.i.) was 0.23 ± 0.03. The “Salivary gland (SUV mean)” value (10 min p.i.) was 1.40 ± 0.25, the “Small instestine (SUV mean)” value (10 min p.i.) was 0.60 ± 0.05 and the “Bone (SUV mean)” value (60 min p.i.) was 0.26 ± 0.09. For the same compound, the “Brain (SUV mean)” value (60 min p.i.) was 0.09 ± 0.03, the “Colon (SUV mean)” value (60 min p.i.) was 0.28 ± 0.14 and the “Gall bladder (SUV mean)” value (60 min p.i.) was 1.02 ± 0.43. For the same compound, the “Heart (SUV mean)” value (60 min p.i.) was 0.28 ± 0.06, the “Kidney (SUV mean)” value (60 min p.i.) was 12.04 ± 2.49 and the “Liver (SUV mean)” value (60 min p.i.) was 0.33 ± 0.06. For the same compound, the “Lung (SUV mean)” value (60 min p.i.) was 0.40 ± 0.16, the “Muscle (SUV mean)” value (60 min p.i.) was 0.20 ± 0.04 and the “Salivary gland (SUV mean)” value (60 min p.i.) was 1.40 ± 0.20. The “Small instestine (SUV mean)” value (60 min p.i.) was 0.49 ± 0.12, the “Bone (SUV mean)” value (120 min p.i.) was 0.21 ± 0.08 and the “Brain (SUV mean)” value (120 min p.i.) was 0.10 ± 0.03. For the same compound, the “Colon (SUV mean)” value (120 min p.i.) was 0.26 ± 0.08, the “Gall bladder (SUV mean)” value (120 min p.i.) was 0.75 ± 0.48 and the “Heart (SUV mean)” value (120 min p.i.) was 0.24 ± 0.03. For the same compound, the “Kidney (SUV mean)” value (120 min p.i.) was 14.49 ± 1.41, the “Liver (SUV mean)” value (120 min p.i.) was 0.21 ± 0.02 and the “Lung (SUV mean)” value (120 min p.i.) was 0.31 ± 0.07. For the same compound, the “Muscle (SUV mean)” value (120 min p.i.) was 0.15 ± 0.05, the “Salivary gland (SUV mean)” value (120 min p.i.) was 1.58 ± 0.12 and the “Small instestine (SUV mean)” value (120 min p.i.) was 0.30 ± 0.07. The “ratio between tumour and muscle (tumour SUV max/muscle SUV mean)” value (60 min p.i.) was 7.46 ± 1.55, the “uptake in the tumour expressed as SUV max” value (60 min p.i.) was 1.48 ± 0.29 and the “ratio between tumour and muscle (tumour SUV max/muscle SUV mean)” value (120 min p.i.) was 11.99 ± 6.16. The “uptake in the tumour expressed as SUV max” value (120 min p.i.) was 1.60 ± 0.44.

Reference: paper PMC11192711, “Automated radiosynthesis and preclinical evaluation of two new PSMA-617 derivatives radiolabelled via [^18F]AlF^2+ method” (EJNMMI Radiopharmacy and Chemistry, 2024)
